The NIST ThermoML archive (doi:10.1021/je100598x)

Test: cn = amount concentration of the nth substance listed, in mol/dm3
Details: 101 kPa, Liquid, Direct current cell with electrodes

CCCCCCCCCCCC[N+](CCC)(CCC)CCC.[Br-] [dodecyltripropylammonium bromide] + O
electrical conductivity [S/m]
Details	288.15 K	293.15 K	298.15 K	303.15 K	308.15 K	313.15 K	318.15 K
c1 = 0.001055	0.00819	0.00909	0.01006	0.01131	0.01244	0.0137	0.0147
c1 = 0.002089	0.0153	0.01734	0.01942	0.0217	0.0238	0.0261	0.0282
c1 = 0.003101	0.0222	0.025	0.0282	0.0316	0.0345	0.038	0.0412
c1 = 0.004092	0.0285	0.0326	0.0367	0.041	0.0449	0.0496	0.0538
c1 = 0.005063	0.0346	0.0398	0.0448	0.0501	0.0546	0.0605	0.0657
c1 = 0.006015	0.0405	0.0467	0.0527	0.059	0.0643	0.0712	0.0774
c1 = 0.006948	0.0461	0.0533	0.0599	0.0675	0.0741	0.0816	0.0886
c1 = 0.007862	0.0516	0.0594	0.0674	0.0757	0.083	0.0912	0.0991
c1 = 0.008759	0.0566	0.0658	0.0743	0.0832	0.0913	0.1001	0.109
c1 = 0.009639	0.0619	0.0714	0.0804	0.0896	0.0982	0.108	0.117
c1 = 0.0105	0.0661	0.0761	0.0846	0.0945	0.1035	0.1136	0.1242
c1 = 0.01135	0.0702	0.0797	0.0883	0.0984	0.108	0.118	0.13
c1 = 0.01218	0.0731	0.0825	0.0919	0.1018	0.1117	0.1228	0.1348
c1 = 0.01319	0.0759	0.0851	0.0953	0.106	0.116	0.128	0.1405
c1 = 0.01419	0.0783	0.0883	0.0985	0.109	0.1203	0.1325	0.146
c1 = 0.01516	0.0806	0.0906	0.1015	0.1128	0.1242	0.137	0.1512
c1 = 0.01657	0.0837	0.0942	0.106	0.118	0.13	0.1433	0.157
c1 = 0.01794	0.0866	0.0976	0.11	0.1224	0.135	0.149	0.165
c1 = 0.01927	0.0895	0.1009	0.1137	0.127	0.1404	0.155	0.1719
c1 = 0.02055	0.0921	0.1041	0.117	0.1312	0.145	0.161	0.178
c1 = 0.02179	0.0947	0.107	0.1211	0.135	0.15	0.166	0.1843
c1 = 0.023	0.0973	0.1101	0.1245	0.139	0.1545	0.1709	0.1906
c1 = 0.02417	0.0996	0.113	0.128	0.1433	0.159	0.175	0.196
